The source of these data is ChEMBL document CHEMBL6182931, “Chemical Evolution of Aplithianine Class of Serine/Threonine Kinase Inhibitors” (J Med Chem, 2025).

A short description of this test: Inhibition of DNAJB1-PKAcalpha (unknown origin) using biotinylated-peptide substrate CREB incubated for 45 mins in presence of ATP and cAMP by ELISA. Also noted: species or system Homo sapiens. On the technique in general: ELISA stands for enzyme-linked immunosorbent assay.

The IC50 is the concentration that inhibits the measured activity by half.

As to `Cc1ncc(C2=CN(c3ncnc4[nH]cnc34)CCS2)o1`, the IC50 was found to be 5200 nM.

Consider `CN[C@H]1CCCN(C(=O)C2=CN(c3ncnc4[nH]ccc34)CCS2)C1`, for which the IC50 is 310 nM.

Consider `C1=C(c2cnco2)SCCN1c1ncnc2[nH]cnc12`, for which the half-maximal inhibitory concentration (IC50) was 1800 nM.

Consider `CN(C[C@@H]1CCCCN1)C(=O)C1=CN(c2ncnc3[nH]ccc23)CCS1`, for which the IC50 stood at 1200 nM.

In the case of `C1=C(c2ccnc3[nH]ccc23)SCCN1c1cc(-c2ccsc2)ncn1`, the IC50 was 2200 nM.

In the case of `Cn1nccc1C1=CN(c2ncnc3[nH]cnc23)CCS1`, the concentration for half-maximal inhibition (IC50) stood at 7200 nM.

As for `Fc1cncnc1N1C=C(c2ccnc3[nH]ccc23)SCC1`, the 50% inhibitory concentration (IC50) is 37 nM.

Take `CC(C)(C)c1cc(N2C=C(c3ccnc4[nH]ccc34)SCC2)ncn1`: the 50% inhibitory concentration (IC50) is 7900 nM.

For the compound `NCCCCNC(=O)C1=CN(c2ncnc3[nH]ccc23)CCS1`, the half-maximal inhibitory concentration (IC50) is 210 nM.

As for `Cc1c[nH]c2ncnc(N3C=C(c4cc[nH]n4)SCC3)c12`, the 50% inhibitory concentration (IC50) amounted to 5200 nM.

With `Cc1c[nH]c2ncnc(N3C=C(c4cnco4)SCC3)c12`, the IC50 was determined as 1800 nM.

With `N[C@H]1CCCN(C(=O)C2=CN(c3ncnc4[nH]ccc34)CCS2)C1`, the IC50 was determined as 81 nM.

Take `Cc1noc(C)c1C1=CN(c2ncnc3[nH]cc(C)c23)CCS1`: the 50% inhibitory concentration (IC50) was greater than 10000 nM.

With `N[C@H]1CCCC[C@H]1NC(=O)C1=CN(c2ncnc3[nH]ccc23)CCS1`, the IC50 worked out at 2600 nM.

For `Cc1c[nH]c2ncnc(N3C=C(c4ccnn4C)SCC3)c12`, the IC50 was greater than 10000 nM.

In the case of `C[C@@H](N)CNC(=O)C1=CN(c2ncnc3[nH]ccc23)CCS1`, the IC50 is 180 nM.

Consider `CN[C@H]1CCCN(C(=O)C2=CN(c3ncnc4[nH]cc(C)c34)CCS2)C1`, for which the IC50 is 400 nM.

As to `C1=C(c2cc[nH]n2)SCCN1c1ncnc2[nH]cnc12`, the IC50 was greater than 10000 nM.

For the compound `O=C(N[C@H]1CCNC1)C1=CN(c2ncnc3[nH]ccc23)CCS1`, the IC50 amounted to 68 nM.

For the compound `Cc1ncc(C2=CN(c3ncnc4[nH]ccc34)CCS2)o1`, the concentration for half-maximal inhibition (IC50) is greater than 10000 nM.

Turning to `Cc1ncoc1C1=CN(c2ncnc3[nH]cc(C)c23)CCS1`, the IC50 was greater than 10000 nM.

Turning to `O=C(C1=CN(c2ncnc3[nH]ccc23)CCS1)N1C[C@@H]2CCCN[C@@H]2C1`, the IC50 is 1100 nM.

With `CN[C@@H]1CCCN(C(=O)C2=CN(c3ccnc4[nH]ccc34)CCS2)C1`, the IC50 was determined as 570 nM.

With `CN(CCN)C(=O)C1=CN(c2ncnc3[nH]ccc23)CCS1`, the IC50 was 370 nM.

In the case of `O=C(NC[C@@H]1CCCCN1)C1=CN(c2ncnc3[nH]ccc23)CCS1`, the IC50 was found to be 660 nM.

In the case of `Cc1c[nH]c2ncnc(N3C=C(c4cccnc4)SCC3)c12`, the IC50 was greater than 10000 nM.

As for `CN[C@H]1CCCN(C(=O)C2=CN(c3ccnc4[nH]cc(C)c34)CCS2)C1`, the IC50 is 530 nM.

For the compound `N[C@@H]1c2ccccc2C[C@@H]1NC(=O)C1=CN(c2ncnc3[nH]ccc23)CCS1`, the IC50 worked out at 410 nM.

For `CN[C@@H]1CCCN(C(=O)C2=CN(c3ccnc4[nH]cc(C)c34)CCS2)C1`, the IC50 was found to be 730 nM.

For `C[C@H](CN)NC(=O)C1=CN(c2ncnc3[nH]ccc23)CCS1`, the IC50 was 530 nM.

Consider `C1=C(c2ccnc3[nH]ccc23)SCCN1c1cc(N2CCOCC2)ncn1`, for which the IC50 was 600 nM.

Consider `NC1(CNC(=O)C2=CN(c3ncnc4[nH]ccc34)CCS2)CCC1`, for which the half-maximal inhibitory concentration (IC50) turned out to be 180 nM.

Regarding `O=C(N[C@@H]1CCNC1)C1=CN(c2ncnc3[nH]ccc23)CCS1`, the concentration for half-maximal inhibition (IC50) was determined as 380 nM.

Consider `N[C@@H]1CCCCN(C(=O)C2=CN(c3ncnc4[nH]ccc34)CCS2)C1`, for which the IC50 was found to be 130 nM.

Take `O=C(N[C@@H](c1ccccc1)[C@@H]1CCCN1)C1=CN(c2ncnc3[nH]ccc23)CCS1`: the 50% inhibitory concentration (IC50) stood at 13 nM.

On to `O=C(N[C@@H]1CCCNC1)C1=CN(c2ncnc3[nH]ccc23)CCS1`, for which the half-inhibitory concentration (IC50) is 690 nM.

For the compound `C[C@]1(N)CCCN(C(=O)C2=CN(c3ncnc4[nH]cnc34)CCS2)C1`, the concentration for half-maximal inhibition (IC50) was found to be 2200 nM.

Take `C[C@@H]1[C@H](N)CCCN1C(=O)C1=CN(c2ncnc3[nH]ccc23)CCS1`: the half-maximal inhibitory concentration (IC50) came to 200 nM.

With `C1=C(c2cccnc2)SCCN1c1ncnc2[nH]cnc12`, the half-maximal inhibitory concentration (IC50) is greater than 10000 nM.

As to `Cc1cc(N2C=C(c3ccnc4[nH]ccc34)SCC2)nc(C(C)(C)C)n1`, the concentration for half-maximal inhibition (IC50) is greater than 10000 nM.

With `N[C@@H]1CCCN(C(=O)C2=CN(c3ncnc4[nH]ccc34)CCS2)C1`, the half-inhibitory concentration (IC50) amounted to 8 nM.

On to `O=C(NC[C@H]1CCCN1)C1=CN(c2ncnc3[nH]ccc23)CCS1`, for which the half-inhibitory concentration (IC50) turned out to be 380 nM.

For `CC(=O)NCCNC(=O)C1=CN(c2ncnc3[nH]cnc23)CCS1`, the IC50 was greater than 10000 nM.

For `C1=C(c2cccnc2)SCCN1c1ncnc2[nH]ccc12`, the IC50 is greater than 10000 nM.

On to `C[C@@H](CN)NC(=O)C1=CN(c2ncnc3[nH]ccc23)CCS1`, for which the IC50 is 110 nM.

On to `O=C(C1=CN(c2ncnc3[nH]ccc23)CCS1)N1CCn2ccnc2C1`, for which the 50% inhibitory concentration (IC50) worked out at 230 nM.

Consider `N[C@@H]1CCCC[C@@H]1NC(=O)C1=CN(c2ncnc3[nH]ccc23)CCS1`, for which the 50% inhibitory concentration (IC50) turned out to be 130 nM.

For `N[C@H]1CCN(C(=O)C2=CN(c3ncnc4[nH]ccc34)CCS2)C1`, the half-inhibitory concentration (IC50) was determined as 500 nM.

Consider `N[C@@H]1CCN(C(=O)C2=CN(c3ncnc4[nH]ccc34)CCS2)C1`, for which the IC50 worked out at 98 nM.

Turning to `NCCNC(=O)C1=CN(c2ncnc3[nH]cnc23)CCS1`, the IC50 was determined as 1300 nM.

`Cc1cc(N2C=C(c3ccnc4[nH]ccc34)SCC2)nc(N(C)C)n1`: the IC50 was determined as 3000 nM.

With `C1=C(c2cc[nH]n2)SCCN1c1ncnc2[nH]ccc12`, the IC50 stood at 2000 nM.

As for `O=C(NC[C@H]1CCCCN1)C1=CN(c2ncnc3[nH]ccc23)CCS1`, the IC50 stood at 680 nM.

As for `CN[C@H]1CCCN(C(=O)C2=CN(c3ncnc4[nH]cnc34)CCS2)C1`, the IC50 came to 770 nM.

In the case of `Cc1c[nH]c2nccc(N3C=C(C(=O)N4CCC[C@@](C)(N)C4)SCC3)c12`, the IC50 turned out to be 43 nM.

With `CC(C)(N)CNC(=O)C1=CN(c2ncnc3[nH]ccc23)CCS1`, the half-maximal inhibitory concentration (IC50) was 380 nM.

Take `O=C(NC[C@@H]1CCCN1)C1=CN(c2ncnc3[nH]ccc23)CCS1`: the IC50 worked out at 350 nM.

For the compound `Cc1c[nH]c2nccc(N3C=C(C(=O)N4CCC[C@H](N)C4)SCC3)c12`, the IC50 amounted to 280 nM.

As for `NCCNC(=O)C1=CN(c2ccnc3[nH]ccc23)CCS1`, the IC50 was 160 nM.

Take `O=C(N[C@H](c1ccccc1)[C@H]1CCCN1)C1=CN(c2ncnc3[nH]ccc23)CCS1`: the half-maximal inhibitory concentration (IC50) was found to be 82 nM.

`C[C@@H]1CCN(C(=O)C2=CN(c3ncnc4[nH]ccc34)CCS2)C[C@@H]1N`: the concentration for half-maximal inhibition (IC50) stood at 60 nM.

For `CN[C@H]1CCCN(C(=O)C2=CN(c3ccnc4[nH]ccc34)CCS2)C1`, the IC50 is 270 nM.

As to `Cc1c[nH]c2nccc(N3C=C(C(=O)N4CCC[C@@H](N)C4)SCC3)c12`, the IC50 worked out at 37 nM.

Regarding `N[C@@H]1CCCN(C(=O)C2=CN(c3ccnc4[nH]ccc34)CCS2)C1`, the IC50 came to 19 nM.

`C[C@H]1C[C@@H](N)CN(C(=O)C2=CN(c3ncnc4[nH]ccc34)CCS2)C1`: the IC50 came out at 6 nM.

Take `C1=C(c2cnco2)SCCN1c1ncnc2[nH]ccc12`: the IC50 was determined as 2900 nM.

`N[C@H]1CCCN(C(=O)C2=CN(c3ccnc4[nH]ccc34)CCS2)C1`: the IC50 was 68 nM.

For `Cc1c[nH]c2ncnc(N3C=C(c4cnn(C)c4)SCC3)c12`, the IC50 stood at 5500 nM.

Regarding `Cc1ncc(C2=CN(c3ncnc4[nH]cc(C)c34)CCS2)o1`, the IC50 is greater than 10000 nM.

For `C[C@H]1[C@H](N)CCCN1C(=O)C1=CN(c2ncnc3[nH]ccc23)CCS1`, the half-inhibitory concentration (IC50) turned out to be 2000 nM.

On to `C[C@H](N)CNC(=O)C1=CN(c2ncnc3[nH]ccc23)CCS1`, for which the concentration for half-maximal inhibition (IC50) stood at 180 nM.

In the case of `Cc1ncoc1C1=CN(c2ncnc3[nH]ccc23)CCS1`, the IC50 turned out to be 4500 nM.

With `NCCCCCNC(=O)C1=CN(c2ncnc3[nH]ccc23)CCS1`, the 50% inhibitory concentration (IC50) is 920 nM.

Turning to `O=C(NCCNC(=O)c1ccccc1)C1=CN(c2ncnc3[nH]cnc23)CCS1`, the 50% inhibitory concentration (IC50) is greater than 10000 nM.

As to `Cc1ncoc1C1=CN(c2ncnc3[nH]cnc23)CCS1`, the 50% inhibitory concentration (IC50) is 1400 nM.

As to `O=C(N[C@H](c1ccccc1)[C@@H]1CCCN1)C1=CN(c2ncnc3[nH]ccc23)CCS1`, the concentration for half-maximal inhibition (IC50) amounted to 640 nM.

As for `Cc1noc(C)c1C1=CN(c2ncnc3[nH]cnc23)CCS1`, the concentration for half-maximal inhibition (IC50) was 6900 nM.

For `O=C(N[C@H]1CCCNC1)C1=CN(c2ncnc3[nH]ccc23)CCS1`, the IC50 was 66 nM.

As for `O=C(C1=CN(c2ncnc3[nH]ccc23)CCS1)N1CCc2nc[nH]c2C1`, the IC50 worked out at 580 nM.

As for `FC(F)(F)COc1cc(N2C=C(c3ccnc4[nH]ccc34)SCC2)ncn1`, the half-maximal inhibitory concentration (IC50) was 820 nM.

In the case of `NC[C@H](NC(=O)C1=CN(c2ncnc3[nH]ccc23)CCS1)c1ccccc1`, the IC50 was found to be 110 nM.

For the compound `Cc1cc(N2C=C(c3ccnc4[nH]ccc34)SCC2)nc(N2CCCCC2)n1`, the IC50 was greater than 10000 nM.

For the compound `CN(C[C@H]1CCCCN1)C(=O)C1=CN(c2ncnc3[nH]ccc23)CCS1`, the IC50 amounted to 420 nM.

Take `C[C@]1(N)CCCN(C(=O)C2=CN(c3ccnc4[nH]ccc34)CCS2)C1`: the concentration for half-maximal inhibition (IC50) was found to be 420 nM.

For `C1=C(c2ccnc3[nH]ccc23)SCCN1c1cc(OCc2ccccc2)ncn1`, the IC50 was found to be 330 nM.

In the case of `C1=C(c2ccncn2)SCCN1c1ccnc2[nH]ccc12`, the IC50 is greater than 10000 nM.

As to `Cc1c[nH]c2nccc(N3C=C(C(=O)N4CCC[C@](C)(N)C4)SCC3)c12`, the IC50 was found to be 500 nM.

Regarding `Cc1noc(C)c1C1=CN(c2ncnc3[nH]ccc23)CCS1`, the half-inhibitory concentration (IC50) was greater than 10000 nM.

Consider `N[C@@H]1CCCC[C@H]1NC(=O)C1=CN(c2ncnc3[nH]ccc23)CCS1`, for which the 50% inhibitory concentration (IC50) was 2300 nM.

As for `NCCCCCCNC(=O)C1=CN(c2ncnc3[nH]ccc23)CCS1`, the IC50 came out at 2900 nM.

For the compound `CN[C@@H]1CCCN(C(=O)C2=CN(c3ncnc4[nH]cnc34)CCS2)C1`, the IC50 was determined as 260 nM.

In the case of `O=C(C1=CN(c2ncnc3[nH]ccc23)CCS1)N1C[C@H]2CCCN[C@H]2C1`, the IC50 was 310 nM.

As for `CCCc1cc2c(N3C=C(c4ccnc5[nH]ccc45)SCC3)ncnc2s1`, the half-inhibitory concentration (IC50) was 1100 nM.

In the case of `CN[C@@H]1CCCN(C(=O)C2=CN(c3ncnc4[nH]ccc34)CCS2)C1`, the IC50 is 87 nM.

As for `FC(F)(F)c1cc(N2C=C(c3ccnc4[nH]ccc34)SCC2)ncn1`, the IC50 amounted to 2400 nM.

With `Cn1nccc1C1=CN(c2ncnc3[nH]ccc23)CCS1`, the half-maximal inhibitory concentration (IC50) is greater than 10000 nM.

On to `CN[C@@H]1CCCN(C(=O)C2=CN(c3ncnc4[nH]cc(C)c34)CCS2)C1`, for which the IC50 is 50 nM.
